Experiments:
rat spine fusion model = assay: Manual palpation fusion, rat posterolateral spine fusion model; format: in vivo, Sprague Dawley rats; conditions: freshly harvested spine explants, 12 weeks
Description: Sixteen male adult (220 to 260 g) Sprague Dawley rats were utilized to compare BMP-2 mediated spine fusion in presence and absence of NBD. […] Therefore, this concentration of BMP-2 was employed. In detail, eight rats underwent single-level posterolateral fusion in the lumber spine using BMP-2 (total dose of 30 μg/side/rat) and NBD ([…]) loaded ACS and eight rats served as positive controls (30 μg/side/rat BMP-2-loaded ACS, no NBD). Rat spines were allowed to heal and consolidate for 12 weeks. Radiographical fusion was determined via high-resolution radiographs obtained at monthly intervals postoperatively. After 12 weeks, ex vivo micro-computed tomography was performed on explanted spines to determine the structural properties of the fusion mass. For functional assessment of spinal fusion, manual palpation was performed. Finally, histological evaluation of spine fusion was performed in terms of Masson-trichrome staining (Table 1). The posterolateral intertransverse process fusion surgical procedure is described briefly. […] The condition of the rats was monitored daily. […] Fusion was determined via manual palpation of segments by two independent observers. Any motion that was detected between the L4 and L5 segment, including the transverse process or vertebral bodies, was considered to indicate a fusion failure. […]

[1] = test system: carrageenan-induced edema; conditions: cited from earlier work
[2] = phase I clinical trial in dogs; cited from earlier work
NFκB = conditions: without affecting the basal activity of IKK; cited from earlier work
[3] = test system: inflammatory bone destruction; conditions: cited from earlier work

Sequence: TALDWSWLQTE (listed as Homo sapiens) [NBD]
- fusion by manual palpation (rat spine fusion model): 100%
- paw edema in mice ([1]; 100 μg and 500 μg NBD): ameliorate
- carrageenan-induced edema formation and cellular inflammation in mouse paws ([1]; mouse, in vivo): significantly inhibit
- toxicity [2]: low toxicity
- pro-inflammatory cytokine-induced NFκB activation (NFκB): block
- inflammatory bone destruction in vivo ([3]; continuous administration): prevent
- signs of toxicity ([3]; in vivo): without showing signs of toxicity
